Source: ChEMBL document CHEMBL4765464, “Discovery of BMS-986144, a Third-Generation, Pan-Genotype NS3/4A Protease Inhibitor for the Treatment of Hepatitis C Virus Infection” (J Med Chem, 2020)
pEC50, pIC50: −log10 of the molar value.

Columns and labels:
[1] = Inhibition of recombinant full length NS3/4A protease in Hepatitis C virus subtype 1b replicon infected in human HuH7 cells preincubated for 3 days followed by substrate addition and measured after 2 hrs by renilla luciferase reporter gene assay; format: cell-based; conditions: Huh-7
[2] = Inhibition of recombinant full length NS3/4A R155K mutant protease in Hepatitis C virus subtype 1a replicon infected in human HuH7 cells preincubated for 3 days followed by substrate addition and measured after 2 hrs by renilla luciferase reporter gene assay; format: cell-based; conditions: Huh-7
[3] = Inhibition of recombinant full length NS3/4A protease in Hepatitis C virus subtype 1a replicon infected in human HuH7 cells preincubated for 3 days followed by substrate addition and measured after 2 hrs by renilla luciferase reporter gene assay; format: cell-based; conditions: Huh-7
[4] = Inhibition of recombinant full length NS3/4A protease in Hepatitis C virus subtype 3a replicon infected in human HuH7 cells preincubated for 3 days followed by substrate addition and measured after 2 hrs by renilla luciferase reporter gene assay; format: cell-based; conditions: Huh-7
[5] = Metabolic stability in human liver microsomes assessed as half-life incubated for 5 to 45 mins in presence of NADPH by LC-MS analysis; format: ADME, Microsome; conditions: time 5-45 min
[6] = Inhibition of recombinant full length NS3/4A protease in Hepatitis C virus subtype 2a replicon infected in human HuH7 cells preincubated for 3 days followed by substrate addition and measured after 2 hrs by renilla luciferase reporter gene assay; format: cell-based; conditions: Huh-7
[7] = Inhibition of recombinant full length NS3/4A D168V mutant protease in Hepatitis C virus subtype 1b replicon infected in human HuH7 cells preincubated for 3 days followed by substrate addition and measured after 2 hrs by renilla luciferase reporter gene assay; format: cell-based; conditions: Huh-7
[8] = Drug concentration in rat plasma at 5 mg/kg, po measured upto 24 hrs; format: ADME, organism-based; conditions: read-out: Ct
[9] = AUC (0 to 24 hrs) in rat at 5 mg/kg, po; format: ADME, organism-based; parameters: time < 24 hr, route oral, dose 5 mg/kg; conditions: in vivo
[10] = Clearance in rat at 1 mg/kg, iv; format: ADME, organism-based; conditions: in vivo
[11] = Cmax in rat at 5 mg/kg, po; format: ADME, organism-based; parameters: route oral, dose 5 mg/kg; conditions: in vivo
[12] = Oral bioavailability in rat at 5 mg/kg; format: ADME, organism-based; conditions: in vivo
[13] = Half life in rat at 1 mg/kg, iv; format: ADME, organism-based; conditions: in vivo
[14] = Drug concentration in rat liver at 5 mg/kg, po measured upto 24 hrs; format: ADME, organism-based; conditions: read-out: Ct
[15] = Inhibition of recombinant full length NS3/4A protease in Hepatitis C virus subtype 3a infected in human HuH7 cells using Ac-Asp-Glu-Asp (EDANS)-Glu-Glu-Abu-(COO) Ala-Ser-Lys (DABCYL)-NH2 as substrate by FRET assay; conditions: Huh-7
[16] = Ratio of drug concentration in liver to plasma in rat at 5 mg/kg, po measured upto 24 hrs; format: ADME, organism-based; conditions: liver and plasma
[17] = AUC in cynomolgus monkey at 3 mg/kg, po or 1 mg/kg, iv; format: ADME, organism-based, Macaca fascicularis; parameters: dose 3 mg/kg; conditions: in vivo
[18] = AUC in rat at 5 mg/kg, po or 1 mg/kg, iv; format: ADME, organism-based; parameters: dose 5 mg/kg; conditions: in vivo
[19] = AUC in dog at 3 mg/kg, po or 1 mg/kg, iv; format: ADME, organism-based, Canis lupus familiaris; parameters: dose 3 mg/kg; conditions: in vivo
[20] = Half-life in dog at 3 mg/kg, po or 1 mg/kg, iv; format: ADME, organism-based, Canis lupus familiaris; conditions: in vivo
[21] = Clearance in rat at 5 mg/kg, po or 1 mg/kg, iv; format: ADME, organism-based; conditions: in vivo
[22] = Half-life in cynomolgus monkey at 3 mg/kg, po or 1 mg/kg, iv; format: ADME, organism-based, Macaca fascicularis; conditions: in vivo
[23] = Drug concentration in dog plasma at 3 mg/kg, po measured upto 24 hrs; format: ADME, organism-based, Canis lupus familiaris; conditions: read-out: Ct
[24] = Clearance in dog at 3 mg/kg, po or 1 mg/kg, iv; format: ADME, organism-based, Canis lupus familiaris; conditions: in vivo
Cytochrome P450 3A4 [25] = target: T1, Cytochrome P450 3A4 (Homo sapiens, UniProt P08684); test: Inhibition of human CYP3A4 in human pooled liver microsomes at 0.002 to 40 uM in presence of testosterone as substrate preincubated in presence of NADPH followed by addition of substrate by LC-MS/MS analysis; format: ADME; conditions: TDE = time-dependent effect, dose 0.002-40 µM, time <=30 min
T1 sequence (P08684 whole entry): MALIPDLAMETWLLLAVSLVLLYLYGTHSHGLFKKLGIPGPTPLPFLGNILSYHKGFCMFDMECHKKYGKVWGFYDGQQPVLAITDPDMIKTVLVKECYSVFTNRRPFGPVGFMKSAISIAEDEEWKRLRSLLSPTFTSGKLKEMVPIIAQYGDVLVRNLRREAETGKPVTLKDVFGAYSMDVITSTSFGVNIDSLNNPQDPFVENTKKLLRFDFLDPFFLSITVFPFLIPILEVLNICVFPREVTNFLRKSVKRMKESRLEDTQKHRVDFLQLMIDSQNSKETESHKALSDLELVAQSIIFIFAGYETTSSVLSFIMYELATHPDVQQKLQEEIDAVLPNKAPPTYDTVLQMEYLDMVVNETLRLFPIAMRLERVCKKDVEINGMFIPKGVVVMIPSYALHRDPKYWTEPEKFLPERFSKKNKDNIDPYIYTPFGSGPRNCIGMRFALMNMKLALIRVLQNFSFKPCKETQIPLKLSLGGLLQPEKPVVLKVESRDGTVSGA

Cytochrome P450 3A4 [26] = target: T1, Cytochrome P450 3A4; test: Inhibition of human CYP3A4 in human pooled liver microsomes at 0.002 to 40 uM in presence of midazolam as substrate preincubated in presence of NADPH followed by addition of substrate by LC-MS/MS analysis; format: ADME; conditions: TDE = time-dependent effect, dose 0.002-40 µM, time <=30 min

Compound	pEC50 [1]	pEC50 [2]	pEC50 [3]	pEC50 [4]	half-life [5] [min]	pEC50 [6]	pEC50 [7]	pIC50 [15]	other results
[2H]C([2H])([2H])Oc1cnc(O[C@@H]2C[C@H]3C(=O)N[C@]4(C(=O)NS(=O)(=O)C5(C)CC5)C[C@H]4/C=C\CC[C@@H](C)C[C@@H](C)[C@H](NC(=O)OC(C)(C)C(F)(F)F)C(=O)N3C2)c2ccccc12	9.40	8.80	9.22	8.40	18	9.30	8.64	–	–
CC[C@@H]1C[C@H](C)CC/C=C\[C@@H]2C[C@@]2(C(=O)NS(=O)(=O)C2(C)CC2)NC(=O)[C@@H]2C[C@@H](Oc3ncc(OC)c4ccccc34)CN2C(=O)[C@H]1NC(=O)OC(C)(C)C(F)(F)F	9.40	8.27	9.10	8.13	23	8.96	8.27	8.72	concentration at 24 h [8]: 229 nM; AUC(0-t) at 24 h [9]: 22.5 µM·h; clearance [10]: 1.7 mL/min/kg; Cmax [11]: 3030 nM; bioavailability [12]: 42%; half-life [13]: 438 min; concentration at 24 h [14]: 2670 nM; Kp at 24 h [16]: 12
COc1cnc(O[C@@H]2C[C@H]3C(=O)N[C@]4(C(=O)NS(=O)(=O)C5(C)CC5)C[C@H]4/C=C\CC[C@@H](C)C[C@@H](C)[C@H](NC(=O)OC(C)(C)C(F)(F)F)C(=O)N3C2)c2ccccc12	9.52	8.80	9.10	8.30	15	9.22	8.33	9.05	concentration at 24 h [8]: 226 nM; AUC(0-t) at 24 h [9]: 34.2 µM·h; clearance [10]: 1.7 mL/min/kg; Cmax [11]: 5290 nM; bioavailability [12]: 60%; half-life [13]: 342 min; concentration at 24 h [14]: 5740 nM; Kp at 24 h [16]: 25
CC[C@@H]1CCCC/C=C\[C@@H]2C[C@@]2(C(=O)NS(=O)(=O)C2CC2)NC(=O)[C@@H]2C[C@@H](Oc3ncc(OC)c4ccc(Cl)cc34)CN2C(=O)[C@H]1NC(=O)OC(C)(C)C(F)(F)F	9.33	7.34	9.08	–	48	8.68	8.32	7.53	–
COc1cnc(O[C@@H]2C[C@H]3C(=O)N[C@]4(C(=O)NS(=O)(=O)C5CC5)C[C@H]4/C=C\CC[C@H](C)C[C@@H](C)[C@H](NC(=O)OC(C)(C)C)C(=O)N3C2)c2cc(Cl)ccc12	8.40	6.15	8.30	–	–	7.72	7.60	7.30	–
C=C[C@@H]1C[C@]1(NC(=O)[C@@H]1C[C@@H](Oc2ncc(OC)c3ccc(Cl)cc23)CN1C(=O)[C@@H](NC(=O)OC(C)(C)C)C(C)(C)C)C(=O)NS(=O)(=O)C1CC1	8.92	6.82	8.40	6.39	–	6.66	6.73	6.40	AUC [17]: 0.65 µM·h; AUC [18]: 1.2 µM·h; concentration at 24 h [8]: 33 nM; AUC [19]: 2.2 µM·h; half-life [20]: 60 min; clearance [21]: 38 mL/min/kg; bioavailability [12]: 14%; concentration at 24 h [14]: 15000 nM; half-life [22]: 78 min; concentration at 24 h [23]: < 10 nM; clearance [24]: 18.7 mL/min/kg
COc1cnc(O[C@@H]2C[C@H]3C(=O)N[C@]4(C(=O)NS(=O)(=O)C5CC5)C[C@H]4/C=C\CCCCC[C@H](NC(=O)OC(C)(C)C)C(=O)N3C2)c2cc(Cl)ccc12	–	–	–	–	6.4	–	–	7.29	–
CC[C@@H]1C[C@H](C)CC/C=C\[C@@H]2C[C@@]2(C(=O)NS(=O)(=O)C2(C)CC2)NC(=O)[C@@H]2C[C@@H](Oc3nccc4cc(O)c(F)cc34)CN2C(=O)[C@H]1NC(=O)OC(C)(C)C(F)(F)F	8.89	8.41	–	7.32	37	8.72	8.02	–	inhibition (INH) (Cytochrome P450 3A4 [25]): Tde; inhibition (INH) (Cytochrome P450 3A4 [26]): Tde
C[C@@H]1CC/C=C\[C@@H]2C[C@@]2(C(=O)NS(=O)(=O)C2CC2)NC(=O)[C@@H]2C[C@@H](Oc3nccc4ccc(F)cc34)CN2C(=O)[C@@H](NC(=O)OC(C)(C)C(F)(F)F)[C@H](C)C1	9.52	7.68	9.00	6.71	10	8.52	–	7.70	–
COc1cnc(O[C@@H]2C[C@H]3C(=O)N[C@]4(C(=O)NS(=O)(=O)C5CC5)C[C@H]4/C=C\CCCC[C@@H](C)[C@H](NC(=O)OC(C)(C)C(F)(F)F)C(=O)N3C2)c2cc(Cl)ccc12	9.32	7.75	9.22	7.37	30.3	8.77	8.17	7.89	–
CC[C@@H]1C[C@H](C)CC/C=C\[C@@H]2C[C@@]2(C(=O)NS(=O)(=O)C2CC2)NC(=O)[C@@H]2C[C@@H](Oc3ncc(OC)c4ccccc34)CN2C(=O)[C@H]1NC(=O)OC(C)(C)C	8.82	7.90	8.66	–	8.6	8.29	7.74	9.80	–
COc1cnc(O[C@@H]2C[C@H]3C(=O)N[C@]4(C(=O)NS(=O)(=O)C5CC5)C[C@H]4/C=C\CCCC[C@@H](C)[C@H](NC(=O)OC(C)(C)C(F)(F)F)C(=O)N3C2)c2ccccc12	9.52	7.94	9.10	7.43	18.6	8.82	7.68	8.66	–
COc1cnc(O[C@@H]2C[C@H]3C(=O)N[C@]4(C(=O)NS(=O)(=O)C5CC5)C[C@H]4/C=C\CC[C@@H](C)C[C@@H](C)[C@H](NC(=O)OC(C)(C)C)C(=O)N3C2)c2cc(Cl)ccc12	9.22	8.40	8.92	–	6.7	8.92	8.89	8.36	–
CC[C@@H]1C[C@H](C)CC/C=C\[C@@H]2C[C@@]2(C(=O)NS(=O)(=O)C2CC2)NC(=O)[C@@H]2C[C@@H](Oc3ncc(OC)c4ccccc34)CN2C(=O)[C@H]1NC(=O)OC(C)(C)C(F)(F)F	9.30	8.08	9.00	8.10	37.7	8.82	7.77	8.92	concentration at 24 h [8]: 72 nM; AUC(0-t) at 24 h [9]: 18.8 µM·h; clearance [10]: 5.73 mL/min/kg; Cmax [11]: 2950 nM; bioavailability [12]: 61%; half-life [13]: 288 min; concentration at 24 h [14]: 2360 nM; Kp at 24 h [16]: 33
COc1cnc(O[C@@H]2C[C@H]3C(=O)N[C@]4(C(=O)NS(=O)(=O)C5CC5)C[C@H]4/C=C\CCCC[C@@H](C)[C@H](NC(=O)OC(C)(C)C)C(=O)N3C2)c2cc(Cl)ccc12	9.60	7.97	9.05	7.12	11.5	8.96	8.72	7.96	–
